Source: patent US8309718B2, “4-pyrazolyl-N-arylpyrimidin-2-amines and 4-pyrazolyl-N-heteroarylpyrimidin-2-amines as janus kinase inhibitors” (Incyte Corporation, priority 2007, dated 2012)

Molecular target: T1, human JAK2 (Homo sapiens, UniProt O60674)
T1 construct: JAK2 (a.a. 828-1132); His tag (N); made in house; host or cells: insect cells (baculovirus)
Assay: In vitro JAK kinase assay (HTRF, phosphorylation of biotinylated peptide)
Type: biochemical
Conditions: catalytic domain a.a. 828-1132, 30 μM ATP, 500 nM peptide, room temperature 1 hr; read-out: JAK-2 IC50
In short: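 His-tagged human JAK2 catalytic domain (a.a. 828-1132), baculovirus/insect-cell expressed; phosphorylation of 500 nM biotinylated peptide at 30 μM ATP in 50 mM Tris pH 7.8, 100 mM NaCl, 5 mM DTT, 0.01% BSA. 1 h at room temperature, EDTA stop, HTRF read (Eu-Py20/SA-APC); IC50.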

T1 sequence (O60674 828-1132): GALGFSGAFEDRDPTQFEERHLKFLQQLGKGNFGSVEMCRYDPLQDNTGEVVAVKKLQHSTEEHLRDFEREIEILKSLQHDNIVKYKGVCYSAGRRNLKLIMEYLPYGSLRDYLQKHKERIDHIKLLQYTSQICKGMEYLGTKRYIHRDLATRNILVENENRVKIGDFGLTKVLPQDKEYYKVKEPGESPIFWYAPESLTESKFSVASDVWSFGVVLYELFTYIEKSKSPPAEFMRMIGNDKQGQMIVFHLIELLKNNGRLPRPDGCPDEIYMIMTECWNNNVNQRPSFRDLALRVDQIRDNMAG

IC50, < 100 nM:
N#CCC(C1CCCC1)n1cc(-c2ccnc(Nc3cccc(C(=O)N4CCCC4)c3)n2)cn1 (racemic) [Example 139, 3-cyclopentyl-3-(4-(2-(3-(pyrrolidine-1-carbonyl)phenylamino)pyrimidin-4-yl)-1H-pyrazol-1-yl)propanenitrile]
COc1cccc([C@@H](C)NC(=O)c2cccc(Nc3nccc(-c4cnn(C(CC#N)C5CCCC5)c4)n3)c2)c1 (mixture of isomers) [Example 145, 3-(4-(1-(2-cyano-1-cyclopentylethyl)-1H-pyrazol-4-yl)pyrimidin-2-ylamino)-N—((R)-1-(3-methoxyphenyl)ethyl)benzamide]
CCS(=O)(=O)N1CC(CC#N)(n2cc(-c3ccnc(Nc4ccc(C(=O)N5CCN(C)CC5)cc4)n3)cn2)C1 [Example 279, 2-(1-(ethylsulfonyl)-3-(4-(2-(4-(4-methylpiperazine-1-carbonyl)phenylamino)pyrimidin-4-yl)-1H-pyrazol-1-yl)azetidin-3-yl)acetonitrile]
N#CCC1(n2cc(-c3ccnc(Nc4ccc(C(=O)NCCO)cc4)n3)cn2)CCN(S(=O)(=O)C2CC2)CC1 [Example 31, 4-(4-(1-(4-(cyanomethyl)-1-(cyclopropylsulfonyl)piperidin-4-yl)-1H-pyrazol-4-yl)pyrimidin-2-ylamino)-N-(2-hydroxyethyl)benzamide]
Cc1cnc(Nc2ccc(C(=O)N3CCC(O)CC3)cc2)nc1-c1cnn(C(CC#N)C2CCCC2)c1 (racemic) [Example 88, 3-cyclopentyl-3-(4-(2-(4-(4-hydroxypiperidine-1-carbonyl)phenylamino)-5-methylpyrimidin-4-yl)-1H-pyrazol-1-yl)propanenitrile]
Cc1cc(CNC(=O)c2ccc(Nc3nccc(-c4cnn(C5(CC#N)CC(C#N)C5)c4)n3)cc2)no1 (single isomer, unassigned) [Example 291, 4-(4-(1-(3-cyano-1-(cyanomethyl)cyclobutyl)-1H-pyrazol-4-yl)pyrimidin-2-ylamino)-N-((5-methylisoxazol-3-yl)methyl)benzamide]
Cc1cnc(Nc2ccc(C(=O)NCCO)cc2)nc1-c1cnn(C(CC#N)C2CCCC2)c1 (racemic) [Example 83, 4-(4-(1-(2-cyano-1-cyclopentylethyl)-1H-pyrazol-4-yl)-5-methylpyrimidin-2-ylamino)-N-(2-hydroxyethyl)benzamide]
N#CCC(C1CCC1)n1cc(-c2ccnc(Nc3cccc(-c4cnco4)c3)n2)cn1 (racemic) [Example 176, 3-cyclobutyl-3-(4-(2-(3-(oxazol-5-yl)phenylamino)pyrimidin-4-yl)-1H-pyrazol-1-yl)propanenitrile]
CCS(=O)(=O)N1CC(CC#N)(n2cc(-c3ccnc(Nc4ccc(C(=O)N5CCC5)cc4)n3)cn2)C1 [Example 273, 2-(3-(4-(2-(4-(azetidine-1-carbonyl)phenylamino)pyrimidin-4-yl)-1H-pyrazol-1-yl)-1-(ethylsulfonyl)azetidin-3-yl)acetonitrile]
N#CCC(CC1CCN(C(=O)c2ccc(F)cc2F)CC1)n1cc(-c2ccnc(Nc3ccc(Oc4ccccc4)cc3)n2)cn1 (racemic) [Example 11, 4-(1-(2,4-difluorobenzoyl)piperidin-4-yl)-3-(4-(2-(4-phenoxyphenylamino)pyrimidin-4-yl)-1H-pyrazol-1-yl)butanenitrile]
N#CCC1(n2cc(-c3ccnc(Nc4ccc(C(=O)N5CCC(O)CC5)cc4)n3)cn2)CC(C#N)C1 (single isomer, unassigned) [Example 301, 3-(cyanomethyl)-3-(4-(2-(4-(4-hydroxypiperidine-1-carbonyl)phenylamino)pyrimidin-4-yl)-1H-pyrazol-1-yl)cyclobutanecarbonitrile]
CCNCC(=O)Nc1cccc(Nc2nccc(-c3cnn(C(CC#N)C4CCCC4)c3)n2)c1 (racemic) [Example 243, N-(3-(4-(1-(2-cyano-1-cyclopentylethyl)-1H-pyrazol-4-yl)pyrimidin-2-ylamino)phenyl)-2-(ethylamino)acetamide]
N#CCC1(n2cc(-c3ccnc(Nc4ccc(C(=O)N5[C@@H]6CC[C@H]5C[C@@H](O)C6)cc4)n3)cn2)CC(C#N)C1 (stereo partly drawn) [Example 300, 3-(cyanomethyl)-3-(4-(2-(4-((3-endo)-3-hydroxy-8-azabicyclo[3.2.1]octane-8-carbonyl)phenylamino)pyrimidin-4-yl)-1H-pyrazol-1-yl)cyclobutanecarbonitrile]
CCS(=O)(=O)N1CCC(CC(CC#N)n2cc(-c3ccnc(Nc4ccc(-n5cccn5)cc4)n3)cn2)CC1 (racemic) [Example 43, 3-(4-(2-(4-(1H-pyrazol-1-yl)phenylamino)pyrimidin-4-yl)-1H-pyrazol-1-yl)-4-(1-(ethylsulfonyl)piperidin-4-yl)butanenitrile]
N#CCC(C1CCCC1)n1cc(-c2ccnc(Nc3ccc(NC(=O)CN4CCC(O)CC4)cc3)n2)cn1 (racemic) [Example 205, N-(4-(4-(1-(2-cyano-1-cyclopentylethyl)-1H-pyrazol-4-yl)pyrimidin-2-ylamino)phenyl)-2-(4-hydroxypiperidin-1-yl)acetamide]
N#CCC(C1CCCC1)n1cc(-c2ccnc(Nc3ccc(C(=O)N4[C@@H]5CC[C@H]4C[C@@H](O)C5)cc3)n2)cn1 (mixture of isomers) [Example 215, 3-cyclopentyl-3-(4-(2-(4-((3-endo)-3-hydroxy-8-azabicyclo[3.2.1]octane-8-carbonyl)phenylamino)pyrimidin-4-yl)-1H-pyrazol-1-yl)propanenitrile]
N#CCC(C1CC1)n1cc(-c2ccnc(Nc3ccc(C(=O)N4CC[C@@H](O)C4)cc3)n2)cn1 (mixture of isomers) [Example 266, 3-cyclopropyl-3-(4-(2-(4-((R)-3-hydroxypyrrolidine-1-carbonyl)phenylamino)pyrimidin-4-yl)-1H-pyrazol-1-yl)propanenitrile]
N#CCC(C1CCC1)n1cc(-c2ccnc(Nc3ccc(N4CCCCC4=O)cc3)n2)cn1 (racemic) [Example 174, 3-cyclobutyl-3-(4-(2-(4-(2-oxopiperidin-1-yl)phenylamino)pyrimidin-4-yl)-1H-pyrazol-1-yl)propanenitrile]
N#CCC(C1CCCC1)n1cc(-c2ccnc(Nc3ccc(C(=O)N4CC[C@H](F)C4)cc3)n2)cn1 (mixture of isomers) [Example 229, 3-cyclopentyl-3-(4-(2-(4-((S)-3-fluoropyrrolidine-1-carbonyl)phenylamino)pyrimidin-4-yl)-1H-pyrazol-1-yl)propanenitrile]
N#CCC1(n2cc(-c3ccnc(Nc4ccc(-c5cnco5)cc4)n3)cn2)CC(C#N)C1 (single isomer, unassigned) [Example 342, 3-(cyanomethyl)-3-[4-(2-{[4-(1,3-oxazol-5-yl)phenyl]amino}pyrimidin-4-yl)-1H-pyrazol-1-yl]cyclobutanecarbonitrile]
CCS(=O)(=O)N1CC(CC#N)(n2cc(-c3ccnc(Nc4ccc(C(=O)N5CC[C@H](F)C5)cc4)n3)cn2)C1 [Example 283, (S)-2-(1-(ethylsulfonyl)-3-(4-(2-(4-(3-fluoropyrrolidine-1-carbonyl)phenylamino)pyrimidin-4-yl)-1H-pyrazol-1-yl)azetidin-3-yl)acetonitrile]
